Values quoted from earlier work in US20190298722A1, “USE OF AN INHIBITOR OF THE DE NOVO SYNTHESIS OF PURINES, IN THE TREATMENT OF ADENYLOSUCCINATE LYASE DEFICIENCY” (ASSISTANCE PUBLIQUE-HOPITAUX DE PARIS, priority 2016, published 2019).

Assays:
[1] = system: ADSL deficiency patients; details: child; not confirmed by other studies (Jurecka et al. 2015); cited from earlier work
[2] = system: brains of rats; details: infusion into the brains of rats; cited from earlier work
[3] = system: ADSL deficiency patient; details: one patient, after 9 months of treatment; cited from earlier work

| SMILES | motor coordination and seizure control [1] | other results |
| --- | --- | --- |
| O=C[C@H](O)[C@H](O)[C@H](O)CO [D-ribose] | improvement | – |
| Nc1c(C(=O)N[C@@H](CC(=O)O)C(=O)O)ncn1[C@@H]1O[C@H](CO)[C@@H](O)[C@H]1O [SAICAr, succinylaminoimidazole carboxamide riboside] | – | neuronal damage [2]: significant neuronal damage |
| C[S+](CC[C@H](N)C(=O)[O-])C[C@H]1O[C@@H](n2cnc3c(N)ncnc32)[C@H](O)[C@@H]1O (stereo partly shown) [SAMe, S-adenosyl-1-methionine] | – | clinical and biological parameters [3]: no improvement |
| O=c1ccn([C@@H]2O[C@H](CO)[C@@H](O)[C@H]2O)c(=O)[nH]1 [uridine] | improvement | – |
